Measurements reported in paper PMC11258351, “PK/PD investigation of antiviral host matriptase/TMPRSS2 inhibitors in cell models” (Scientific Reports, 2024).
Entries after “also recorded” stand apart in the source; their conditions may differ.

Experiments:
[1] = Prediction of in vivo human PK parameters from hepatocyte clearance; format: in vitro ADME; conditions: for Classification (extraction type) / Extraction ratio EH: predicted; for Predicted Cl, CLH: predicted from hepatocyte Clint, fu = 1
H1N1 PR8 = test system: H1N1 PR8; design: method as in PMID 23365447; conditions: Calu-3 cells; cited from earlier work
[2] = test system: primary human hepatocytes; conditions: 50 μM; cited from earlier work
CYP1A2 = biological target: T1, CYP1A2 (Homo sapiens, UniProt P05177); test: Fluorometric CYP1A2 activity assay in human hepatic microsomes; conditions: human liver microsomes, protease inhibitors at 50 µM, 15 min 37 °C
T1 sequence (P05177 1-516): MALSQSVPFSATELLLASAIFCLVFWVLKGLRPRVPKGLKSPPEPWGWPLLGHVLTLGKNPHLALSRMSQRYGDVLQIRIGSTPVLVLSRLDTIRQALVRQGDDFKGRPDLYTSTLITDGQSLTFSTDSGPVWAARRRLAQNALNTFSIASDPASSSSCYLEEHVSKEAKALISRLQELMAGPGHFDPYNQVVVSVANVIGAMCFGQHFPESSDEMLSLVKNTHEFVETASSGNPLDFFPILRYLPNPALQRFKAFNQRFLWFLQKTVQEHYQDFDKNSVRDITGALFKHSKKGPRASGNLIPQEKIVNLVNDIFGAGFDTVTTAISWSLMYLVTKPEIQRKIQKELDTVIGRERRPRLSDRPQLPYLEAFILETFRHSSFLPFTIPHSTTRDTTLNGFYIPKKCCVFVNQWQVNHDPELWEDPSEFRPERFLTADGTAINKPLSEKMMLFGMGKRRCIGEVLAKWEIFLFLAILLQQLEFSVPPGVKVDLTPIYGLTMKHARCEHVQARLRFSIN

CYP2C9 = CYP2C9 (Homo sapiens, UniProt P11712); test: Fluorometric CYP2C9 activity assay in human hepatic microsomes; conditions: human liver microsomes, protease inhibitors at 50 µM, 15 min 37 °C
CYP2D6 = CYP2D6 (Homo sapiens, UniProt P10635); test: Fluorometric CYP2D6 activity assay in human hepatic microsomes; conditions: human liver microsomes, protease inhibitors at 50 µM, 15 min 37 °C
CYP3A4 = CYP3A4 (Homo sapiens, UniProt P08684); test: Fluorometric CYP3A4 activity assay in human hepatic microsomes; conditions: human liver microsomes, 10, 25 and 50 µM
CYP2C19 = CYP2C19 (Homo sapiens, UniProt P33261); test: Fluorometric CYP2C19 activity assay in human hepatic microsomes; conditions: human liver microsomes, protease inhibitors at 50 µM, 15 min 37 °C
[3] = Depletion of inhibitors in human primary hepatocyte suspension (LC-MS/MS); conditions: human, cryopreserved primary human hepatocytes in suspension; for CLint scaled at 10 µM: intrinsic clearance from primary human hepatocytes scaled to whole liver/body weight
[4] = test system: human primary hepatocytes; test: as above; conditions: primary human hepatocytes, 10 µM; for Parent compound retained at the 120-min sampling point: % of 0-min concentration, mean ± S.E.M.; for Sampling interval at which significant depletion was first observed: sampling 0-120 min
SARS-CoV-2 = test system: SARS-CoV-2; design: method as in PMID 32703818; conditions: Calu-3 cells, 50 μM, 24 h p.i.; cited from earlier work
Calu-3 cells = test system: Calu-3 cells; design: method as in PMID 32703818; conditions: 50 μM; cited from earlier work
H1N1 IAV = test system: H1N1 IAV; design: method as in PMID 23527573; conditions: Calu-3 cells; cited from earlier work
H3N2 IAV = test system: H3N2 IAV; design: method as in PMID 23527573; conditions: Calu-3 cells; cited from earlier work
[5] = test system: H9N2 IAV strain A/quail/Shantou/782/00; format: cell-based, influenza A virus; conditions: MDCK-II cells, MOI 0.01, 50 µM, 24 h
α-1 acidic glycoprotein = test system: α-1 acidic glycoprotein; design: method as in PMID 37865989; conditions: cited from earlier work
[6] = test system: cynomolgus monkey hepatocytes; design: method as in PMID 31391268; conditions: cited from earlier work

Chain of CYP3A4 (P08684 whole entry): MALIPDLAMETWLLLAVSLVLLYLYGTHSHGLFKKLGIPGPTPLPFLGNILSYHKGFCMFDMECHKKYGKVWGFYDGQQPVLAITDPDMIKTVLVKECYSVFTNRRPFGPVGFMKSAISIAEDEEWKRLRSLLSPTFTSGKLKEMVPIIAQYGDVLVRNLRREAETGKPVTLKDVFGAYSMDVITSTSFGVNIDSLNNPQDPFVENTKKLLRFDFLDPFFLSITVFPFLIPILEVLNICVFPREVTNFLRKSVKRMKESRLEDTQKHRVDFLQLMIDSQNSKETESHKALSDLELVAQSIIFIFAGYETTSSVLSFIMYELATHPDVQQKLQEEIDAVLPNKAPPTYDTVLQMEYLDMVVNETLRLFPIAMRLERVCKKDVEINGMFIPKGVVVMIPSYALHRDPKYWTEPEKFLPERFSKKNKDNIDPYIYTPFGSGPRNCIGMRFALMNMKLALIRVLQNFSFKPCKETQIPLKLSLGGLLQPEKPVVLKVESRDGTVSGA
Chain of CYP2D6 (P10635 whole entry): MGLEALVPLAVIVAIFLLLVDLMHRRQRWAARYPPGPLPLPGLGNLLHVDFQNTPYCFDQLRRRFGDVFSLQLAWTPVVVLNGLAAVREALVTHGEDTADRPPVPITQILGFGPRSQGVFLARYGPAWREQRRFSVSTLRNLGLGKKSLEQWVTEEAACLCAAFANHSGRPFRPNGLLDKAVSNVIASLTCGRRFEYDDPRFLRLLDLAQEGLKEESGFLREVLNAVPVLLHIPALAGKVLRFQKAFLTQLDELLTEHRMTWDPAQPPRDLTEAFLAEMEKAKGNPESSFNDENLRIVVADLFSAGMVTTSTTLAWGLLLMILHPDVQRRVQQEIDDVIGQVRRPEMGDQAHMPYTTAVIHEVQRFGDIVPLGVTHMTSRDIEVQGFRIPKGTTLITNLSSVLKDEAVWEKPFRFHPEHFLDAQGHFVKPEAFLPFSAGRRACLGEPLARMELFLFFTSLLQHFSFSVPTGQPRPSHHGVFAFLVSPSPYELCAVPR
Chain of CYP2C9 (P11712 whole entry): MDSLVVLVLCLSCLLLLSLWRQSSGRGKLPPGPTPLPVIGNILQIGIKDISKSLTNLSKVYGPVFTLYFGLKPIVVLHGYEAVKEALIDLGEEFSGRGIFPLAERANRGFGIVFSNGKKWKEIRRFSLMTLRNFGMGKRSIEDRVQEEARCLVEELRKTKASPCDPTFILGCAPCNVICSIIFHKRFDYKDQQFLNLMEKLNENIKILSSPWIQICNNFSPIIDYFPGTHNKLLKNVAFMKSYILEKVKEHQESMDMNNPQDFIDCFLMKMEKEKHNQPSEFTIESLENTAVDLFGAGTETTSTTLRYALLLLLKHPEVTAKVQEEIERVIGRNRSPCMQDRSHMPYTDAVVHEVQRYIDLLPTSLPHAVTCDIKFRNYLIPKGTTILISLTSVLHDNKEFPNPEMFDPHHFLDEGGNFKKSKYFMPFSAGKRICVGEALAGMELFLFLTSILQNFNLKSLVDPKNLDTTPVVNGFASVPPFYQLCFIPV
Chain of CYP2C19 (P33261 whole entry): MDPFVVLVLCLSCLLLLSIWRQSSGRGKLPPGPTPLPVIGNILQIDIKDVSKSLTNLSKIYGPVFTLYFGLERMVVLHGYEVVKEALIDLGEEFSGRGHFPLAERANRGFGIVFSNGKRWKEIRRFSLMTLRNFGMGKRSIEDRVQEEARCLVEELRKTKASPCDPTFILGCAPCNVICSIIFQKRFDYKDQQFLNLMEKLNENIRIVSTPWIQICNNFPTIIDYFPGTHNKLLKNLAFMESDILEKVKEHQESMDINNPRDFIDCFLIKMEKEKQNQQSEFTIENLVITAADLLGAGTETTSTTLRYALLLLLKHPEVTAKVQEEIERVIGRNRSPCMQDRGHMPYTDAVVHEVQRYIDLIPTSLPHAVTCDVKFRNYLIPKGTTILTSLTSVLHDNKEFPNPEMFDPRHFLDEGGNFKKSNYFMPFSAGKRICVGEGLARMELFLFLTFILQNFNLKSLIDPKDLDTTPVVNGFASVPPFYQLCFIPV

## N=C(N)c1cccc(C[C@H](NS(=O)(=O)c2cccc(NC(=O)CCN)c2)C(=O)N2CCC(CCN)CC2)c1 [MI-21]
[1]
  Classification (extraction type): Intermediate
  Extraction ratio EH: 0.53
  Predicted Cl, CLH: 10.92
H1N1 PR8
  Inhibition of replication of H1N1 PR8: promising inhibition
[2]
  Cell toxicity: no cell toxicity
CYP1A2
  Inhibition of CYP1A2 activity: No significant CYP inhibitory potential
CYP2C9
  Inhibition of CYP2C9 activity: No significant CYP inhibitory potential
CYP2D6
  Inhibition of CYP2D6 activity: No significant CYP inhibitory potential
CYP3A4
  Effect on CYP3A4 enzyme activity: did not cause significant reduction; also recorded: did not significantly suppress
CYP2C19
  Inhibition of CYP2C19 activity: No significant CYP inhibitory potential
[3]
  half-life at 10 µM: 0.52 h
  CLint scaled at 10 µM: 147 mL/min/kg
[4]
  Parent compound retained at the 120-min sampling point: 16.6 ± 1.6%
  Sampling interval at which significant depletion was first observed: 30 min

## N=C(N)c1cccc(C[C@H](NS(=O)(=O)c2cccc(-c3ccc(Cl)cc3Cl)c2)C(=O)N2CCC(CCN)CC2)c1.O=C(O)C(F)(F)F.O=C(O)C(F)(F)F [MI-432, reference compound]
SARS-CoV-2
  Reduction of SARS-CoV-2 viral titers compared to control samples: 75 fold
Calu-3 cells
  Influence on Calu-3 cell viability: without influencing Calu-3 cell viabilitiy significantly
H1N1 IAV
  Inhibition of proteolytic activation and replication of H1N1 IAV: notable efficacy
H3N2 IAV
  Inhibition of proteolytic activation and replication of H3N2 IAV: notable efficacy

## COc1ccc(-c2cccc(S(=O)(=O)N[C@@H](Cc3cccc(C(=N)N)c3)C(=O)N3CCC(N)CC3)c2)c(OC)c1 [MI-472]
[1]
  Classification (extraction type): Intermediate
  Extraction ratio EH: 0.36
  Predicted Cl, CLH: 7.40
[5]
  H9N2 viral spread / formation of viral foci: only slightly reduced formation of viral foci
α-1 acidic glycoprotein
  Interaction with α-1 acidic glycoprotein: complex formation
[6]
  Treatment time after which significant conversion was seen: 60 to 120 min
CYP1A2
  Inhibition of CYP1A2 activity: No significant CYP inhibitory potential
CYP2C9
  Inhibition of CYP2C9 activity: No significant CYP inhibitory potential
CYP2D6
  Inhibition of CYP2D6 activity: No significant CYP inhibitory potential
CYP3A4
  Effect on CYP3A4 enzyme activity: significant inhibitory effect
CYP2C19
  Inhibition of CYP2C19 activity: No significant CYP inhibitory potential
[3]
  half-life at 10 µM: 3.84 h
  CLint scaled at 10 µM: 19.8 mL/min/kg
[4]
  Parent compound retained at the 120-min sampling point: 65.1 ± 5.5%
  Sampling interval at which significant depletion was first observed: 30 min
